Results from ChEMBL document CHEMBL2074127, “P-glycoprotein in the blood-brain barrier of mice influences the brain penetration and pharmacological activity of many drugs” (J Clin Invest, 1996).

What was measured:
[1] = molecular target: T1, ATP-dependent translocase ABCB1 (Mus musculus, UniProt P21447); assay: TP_TRANSPORTER: transepithelial transport (basal to apical) in mdr1a-expressing LLC-PK1 cell; assay type: functional, cell-based; conditions: pig
[2] = molecular target: T1, ATP-dependent translocase ABCB1; assay: TP_TRANSPORTER: increase in brain concentration in mdr1a(-/-) mouse; assay type: functional, organism-based; conditions: in vivo
[3] = molecular target: ATP-dependent translocase ABCB1 (Homo sapiens, UniProt P08183); assay: TP_TRANSPORTER: transepithelial transport (basal to apical) in MDR1-expressing LLC-PK1 cells; assay type: functional, cell-based; conditions: pig
Sequence of ATP-dependent translocase ABCB1 (Homo sapiens, UniProt P08183) (P08183 whole entry): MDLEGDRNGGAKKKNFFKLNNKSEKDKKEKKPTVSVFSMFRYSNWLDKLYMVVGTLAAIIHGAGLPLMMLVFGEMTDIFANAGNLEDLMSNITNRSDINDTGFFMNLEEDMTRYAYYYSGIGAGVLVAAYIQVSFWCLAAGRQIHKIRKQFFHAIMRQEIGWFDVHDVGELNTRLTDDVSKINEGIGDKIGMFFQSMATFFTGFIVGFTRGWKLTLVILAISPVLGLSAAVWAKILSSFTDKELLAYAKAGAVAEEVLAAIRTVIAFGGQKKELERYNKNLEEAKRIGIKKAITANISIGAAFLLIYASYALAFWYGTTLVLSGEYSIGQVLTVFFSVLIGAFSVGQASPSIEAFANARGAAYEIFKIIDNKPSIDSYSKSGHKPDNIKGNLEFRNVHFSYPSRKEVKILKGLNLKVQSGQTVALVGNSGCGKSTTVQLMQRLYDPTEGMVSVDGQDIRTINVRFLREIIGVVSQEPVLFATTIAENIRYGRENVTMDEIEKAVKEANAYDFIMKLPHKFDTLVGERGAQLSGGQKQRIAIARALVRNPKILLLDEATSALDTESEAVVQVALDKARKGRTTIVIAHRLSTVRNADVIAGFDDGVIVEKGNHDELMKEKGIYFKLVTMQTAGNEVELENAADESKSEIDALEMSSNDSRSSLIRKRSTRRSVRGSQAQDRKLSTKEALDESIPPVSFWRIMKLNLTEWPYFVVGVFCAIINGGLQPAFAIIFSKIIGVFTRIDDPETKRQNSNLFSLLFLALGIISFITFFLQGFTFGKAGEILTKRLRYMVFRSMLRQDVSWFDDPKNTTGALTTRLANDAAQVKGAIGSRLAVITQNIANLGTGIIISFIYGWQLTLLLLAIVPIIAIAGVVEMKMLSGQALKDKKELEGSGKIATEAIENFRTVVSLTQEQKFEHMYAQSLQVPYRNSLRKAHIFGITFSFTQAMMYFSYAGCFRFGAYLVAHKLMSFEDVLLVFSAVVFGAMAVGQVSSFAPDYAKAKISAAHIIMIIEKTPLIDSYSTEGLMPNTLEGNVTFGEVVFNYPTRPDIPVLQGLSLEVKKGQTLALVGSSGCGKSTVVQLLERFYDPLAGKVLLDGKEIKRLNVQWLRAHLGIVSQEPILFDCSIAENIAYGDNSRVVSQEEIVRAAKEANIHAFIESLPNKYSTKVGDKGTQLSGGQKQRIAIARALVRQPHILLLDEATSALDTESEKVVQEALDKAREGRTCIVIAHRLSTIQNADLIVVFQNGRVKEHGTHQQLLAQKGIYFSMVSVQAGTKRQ

T1 sequence (P21447 whole entry): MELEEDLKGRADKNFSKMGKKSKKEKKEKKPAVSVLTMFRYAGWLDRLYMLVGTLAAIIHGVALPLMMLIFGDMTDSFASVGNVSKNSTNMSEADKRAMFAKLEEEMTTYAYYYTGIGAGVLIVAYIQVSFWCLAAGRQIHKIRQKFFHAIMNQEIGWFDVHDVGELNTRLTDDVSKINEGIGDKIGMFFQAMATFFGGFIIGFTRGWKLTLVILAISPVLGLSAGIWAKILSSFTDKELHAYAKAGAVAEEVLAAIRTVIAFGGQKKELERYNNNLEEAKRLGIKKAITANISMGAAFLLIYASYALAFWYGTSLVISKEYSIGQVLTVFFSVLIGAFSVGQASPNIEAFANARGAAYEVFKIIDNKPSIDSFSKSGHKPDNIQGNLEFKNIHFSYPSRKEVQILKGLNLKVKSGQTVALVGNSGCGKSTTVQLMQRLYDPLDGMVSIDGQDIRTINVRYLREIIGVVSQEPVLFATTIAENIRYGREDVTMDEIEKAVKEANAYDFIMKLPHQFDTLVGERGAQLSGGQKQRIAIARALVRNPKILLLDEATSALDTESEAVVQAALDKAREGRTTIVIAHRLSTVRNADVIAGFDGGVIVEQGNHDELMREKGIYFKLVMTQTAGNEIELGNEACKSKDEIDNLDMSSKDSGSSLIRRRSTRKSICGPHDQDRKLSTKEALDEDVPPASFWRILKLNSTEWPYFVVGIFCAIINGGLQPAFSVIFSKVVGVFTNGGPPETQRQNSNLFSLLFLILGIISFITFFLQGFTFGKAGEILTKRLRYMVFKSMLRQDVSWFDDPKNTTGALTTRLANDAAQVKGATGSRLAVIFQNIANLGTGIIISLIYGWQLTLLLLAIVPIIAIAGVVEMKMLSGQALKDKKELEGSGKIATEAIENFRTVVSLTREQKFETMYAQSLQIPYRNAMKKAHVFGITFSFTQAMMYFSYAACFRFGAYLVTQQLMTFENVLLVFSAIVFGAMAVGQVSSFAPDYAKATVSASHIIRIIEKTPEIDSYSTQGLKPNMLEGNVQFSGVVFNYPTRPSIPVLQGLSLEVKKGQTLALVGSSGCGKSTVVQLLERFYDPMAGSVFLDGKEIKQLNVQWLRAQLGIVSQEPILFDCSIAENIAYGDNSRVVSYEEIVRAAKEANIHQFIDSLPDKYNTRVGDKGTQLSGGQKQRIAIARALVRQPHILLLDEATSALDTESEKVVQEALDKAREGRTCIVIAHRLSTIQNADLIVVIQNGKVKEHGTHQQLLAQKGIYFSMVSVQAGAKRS

Compound	Activity [1]	Activity [2]	Activity [3]
CN(C)C(=O)C(CCN1CCC(O)(c2ccc(Cl)cc2)CC1)(c1ccccc1)c1ccccc1 [LOPERAMIDE]	substrate [+]	substrate [+]	substrate [+]
Cc1nccn1CC1CCc2c(c3ccccc3n2C)C1=O (stereo unspecified) [ONDANSETRON]	substrate [+]	substrate [+]	–
O=C1NC(=O)C(c2ccccc2)(c2ccccc2)N1 [PHENYTOIN]	substrate [+]	–	–
